From patent publication US5866377A, “Aminooligosaccharide derivative and process for preparing the same” (Chong Kun Dang Corporation, priority 1994, dated 1999)

Experiments:
blood glucose level = test: Lowering of sugar level in blood after oral starch load; assay type: in vivo; settings: male SD rats fasted 12 hrs, 1 hr after administration, glucose oxidase method
Protocol: To two groups of 5 male SD rats fasted for 12 hrs, 1.5 g/kg of starch was orally administered, concurrently with 40 mg/kg and 80 mg/kg of samples. Then, blood was taken from the rats after 1 hr from administration, and glucose level in blood was determined by glucose oxidase method and compared with control group which has not taken the CK-4416 sample.

amylase = test: Inhibition of amylase activity; assay type: biochemical; settings: 0.25M phosphate buffer pH 7.0, starch substrate, 37° C., absorbance at 660 nm; 30 min; read-out: half(50%) inhibition ratio for amylase activity(IC50)
Protocol: An enzyme solution(hereinafter referred to as `solution A`) containing amylase dissolved in 0.25M phosphate buffer(pH 7.0), 0.25M phosphate buffer solution(pH 7.0)(hereinafter referred to as `solution B`) and 0.04 (w/v) % starch solution (hereinafter referred to as `solution C`) were prepared, respectively. Then, 0.05 ml of solution B containing CK-4416 dissolved in solution B, 0.1 ml of solution B and 0.05 ml of solution B were combined to incubate at 37° C. for 5 min, and further incubated for 30 min after the addition of 0.5 ml of solution C. After […], absorbance at 660 nm was deter-mined for CK-4416 sample(T) and control(C) which is free of sample.
Inhibition ratio=(C-T)/C×100

[1] = Acidic, neutral or basic properties; assay type: physicochemical
Source text: 13. Acidic, neutral or basic properties:

Solubility = assay type: physicochemical
Source text: soluble in water and ethanol insoluble in benzene and normal hexane

[2] = test system: Gram-positive bacterial strains; test: Antibacterial activity, paper disc method, Gram-positive strains; assay type: cell-based; settings: 1 mg/ml sample
Protocol: (§1) Antibacterial activities for Gram-positive and negative bacterial strains were determined with 1 mg/ml of CK-4416 sample, by employing paper disc method.

[3] = test system: Comamonas terrigena(ATCG 8461); test: Antibacterial activity, paper disc method, Gram-negative strain; assay type: cell-based; settings: 1 mg/ml sample, read-out: inhibitory zone
Protocol: To four of 500 ml Erlenmeyer flasks was addled 100 ml of a medium for seed culture(pH 6.5) containing glucose 1 (w/v) %, dextrin 1 (w/v) %, NZ-amine(type A) 0.5 (w/v) %, yeast extract 0.5 (w/v) % and calcium carbonate 0.1 (w/v) %, and sterilized at 120° C. for 15 min. 1 platinum loop of slant culture of Streptomyces sp. CK-4416 which was obtained from a subculture, was inoculated to each of four flasks and incubated under shaking at 27° C. for 3 days. Then, 100 ml of culture media(pH 6.5) containing soluble starch 3 (w/v) %, soybean powder 1.5 (w/v) %, corn steep liquor 1.5 (w/v) %, polypeptone 0.2 (w/v) %, Na2 S2 O3 0.1 (w/v) %, calcium carbonate 0.5 (w/v) %, cobalt chloride 0.0001 (w/v) % was added to 200 of 500 ml Erlenmeyer flasks and sterilized at 120° C. for 30 min. 2 (v/v) % of seed culture was inoculated to the media and incubated at 27° C. for 3 days under shaking at 240 rpm. CK-4416 was quantitatively assayed by the determination of antimicrobial activity employing a test organism Comamonas terrigena(ATCC 8461) in accordance with conventional paper disc method. After 3 days culture, pH and yield were determined as 7.2 and 0.06 mg/ml, respectively.
as §1

Q: Which Blood glucose level (blood glucose level; 40 mg/kg oral with 1.5 g/kg starch) does the source give for OCC1OC(OC2C(CO)OC(OC3C(CO)OC(OC4C(CO)OC(OC5C(CO)OC(O)C(O)C5O)C(O)C4O)C(O)C3O)C(O)C2O)C(O)C(O)C1NC1C(O)C(O)C(O)C2(CO)OC12 (single isomer, unassigned) [CK-4416] here?
A: 97.5 ± 14.3

Q: What about the Blood glucose level (blood glucose level; 80 mg/kg oral with 1.5 g/kg starch) of the same compound?
A: 87.5 ± 11.3

Q: And the IC50 (amylase)?
A: 1600 nM

Q: What about the “Acidic, neutral or basic properties” value [1] of the same compound?
A: weakly basic

Q: What about the Solubility (Solubility; in benzene and normal hexane) of the same compound?
A: insoluble

Q: And the Solubility (Solubility; in water and ethanol)?
A: soluble

Q: What about the Antibacterial activity [2] of the same compound?
A: no activity

Q: And the zone of inhibition at 1000 µg/mL [3]?
A: 24.8 mm
